In US8809555B2, “Anti-leishmanial compound and anti-leishmanial drug” (Aoyama Gakuin Educational Foundation, priority 2010, dated 2014):

What was measured:
L. major PM2 = test: Analysis of in vivo anti-leishmanial activity (leishmaniasis mouse model); conditions: mice infected with 1×10^7 promastigotes of L. major PM2; 200 μg by peritoneal injection once a day for three weeks; size of ulcer, antibody titer in blood, protozoan DNA in blood (FIG. 10-12)
Method: In order to evaluate the in vivo anti-leishmanial activity of the compound represented by formula (3), which had been isolated by the procedure described above, a leishmaniasis mouse model was used to investigate the therapeutic effect. Six-week old mice ([…], male, 6 animals per group) were infected with 1×10^7 cells of cultured promastigotes of L. major PM2. From the day after the infection day, the compound represented by the formula (3) was administered to each specimen in an amount of 200 μg by peritoneal injection. The administration schedule was such that the compound was continuously administered once a day for three weeks. Further, as control, the same analysis was carried out also for a treatment group to which Amphotericin B was administered, and for a treatment group to which none was administered.

[1] = tested on: Leishmania major promastigotes (MHOM/UZ/91/PM2); test: Analysis of in vitro anti-leishmanial activity (growth inhibition of L. major/egfp promastigotes, fluorescence); format: cell-based; conditions: 25° C., 72 h, inhibition with Amphotericin B (positive control) defined as 100%, FIG. 9
Source text: The compounds represented by formulas (1) to (6), which had been isolated by the procedure described above, were subjected to an analysis of the physiological activity under the conditions that are described below. Leishmania major promastigotes (MHOM/UZ/91/PM2) were selected as the Leishmania protozoa, and a L. major/egfp promastigotes in which a fluorescent protein egfp gene had been introduced was used. The compounds mentioned above were used as samples. Thus, the growth inhibition rate was determined under the following conditions.
Promastigotes of transgenic Leishmania major (MHOM/UZ/91/PM2) expressing enhanced green fluorescent protein (L. major/egfp) were maintained at 25° C. in 199 medium (NISSUI Pharmaceutical, Tokyo, Japan) containing 10% fetal bovine serum, 25 mM Hepes buffer (MP Biomedicals, LLC) and 10 μg/mL […] (SIGMA-ALDRICH, inc., USA). […] Thereafter, fluorescence signals of L. major/egfp promastigotes were measured with a fluorescence microplate reader (Fluoroscan Ascent FL, Dainippon. Pharmaceutical Co., Osaka, Japan) with excitation at 485 nm and emission at 538 nm. […]

With CC(C)=CCC/C(C)=C/CC/C(C)=C/CC/C(C)=C/CC1(CC(=O)O)CC(=O)C=CC1=O (centres unmarked) [formula (3)] the “in vivo anti-leishmanial activity” value (L. major PM2) was “equal to that of Amphotericin B” and the growth inhibition rate [1] was “almost equal to the growth inhibition rate of Amphotericin B”.
